# Article PMC2119350 (The Journal of Experimental Medicine, 1992)
# What was measured:
# [1] = target: I-Ed (Mus musculus, UniProt P01904+P01915); details: pH 5 as compared with pH 7; cited from earlier work
# [2] = target: I-Ak (Mus musculus, UniProt P01910+P06343); test: Peptide binding immunoassay; details: 250 μM unlabeled HEL(46-61) vs biotin-HEL(46-61), 68 h
nonspecific signal remaining with unlabeled competitor [2],Substance,apparent affinity [1],apparent concentration (number) of peptide-binding sites [1],effect on dissociation [1],rate of association [1]
,GMNAWVAWRNR.CKGTDVY [HEL(104-120)],increased,increased,no measurable effect,increased
< 10 % of maximal absorbance,NTDGSTDYGILQINSR [HEL(46-61)],,,,
